Data set [1] is described as follows: Rat IV/PO pharmacokinetics. In kind it is in vivo, Sprague-Dawley rat. Particulars: plasma, IV 1 mg/kg; for MRT / clearance / half-life / Vd: male Sprague-Dawley rats (n = 2); for clearance: read-out: CLp; for half-life: read-out: Elim. t 1/2 (converted); for Vd: read-out: V ss. The protocol: (1700 rcf, 5 minutes, 4 °C) to obtain plasma sample. […]
All brain and plasma samples were stored at -80 °C until analysis by LC-MS/MS.
Male Sprague-Dawley rats were used for discrete pharmacokinetic studies. Compounds in ethanol:
PEG400: saline (1:4:5 v/v/v) were administered intra-venously in two rats at 1 mg/kg (IV PK). Two rats were also gavaged at 10 mg/kg with compounds in 10% Tween 80 in water (PO PK). Blood samples were collected from all […] at […] different time points post-dose (0.25, 0.50, 1.0, 2.0, 4.0, 7.0 and 24 hr) and plasma was prepared as described above. The concentration of compounds in plasma was quantified by LC/MS/MS as described below.
The IV PK experiment was used to determine clearance, Volume of distribution and half-life. The PO experiments were used to determine exposure and oral bioavailability. PK parameters were calculated using Phoenix WinNonlin software (version 8.1).
Samples preparation for bioanalysis
Plasma samples from the in-life phase of the study were thawed at ambient temperature (benchtop), and then aliquots (20 µL per sample) were transferred to a 96-shallow-well (V-bottom) plate. Matrix-matched quality control (QC) samples and standard curves of VU6031545 and VU6024945 (1 mg/mL DMSO stock solution) were prepared in blank rat plasma (K2EDTA-treated) or blank brain homogenate via serial dilution and transferred (20 µL each) to the plate along with multiple blank plasma and brain homogenate samples. Acetonitrile (120 µL) containing IS (10 nM carbamazepine) was added to each well of the plate to precipitate protein. The plate was then centrifuged (4000 rcf, 5 minutes, ambient temperature), and resulting supernatants (60 µL each) were transferred to a new 96-shallow-well (V-bottom) plate containing an equal volume (60 µL per well) of water (Milli-Q purified). The plate was then sealed in preparation for LC-MS/MS analysis. […]

A short description of data set [2]: Intrinsic clearance in rat liver microsomes. It is filed as in vitro ADME. Particulars: for CLint scaled at 0.75 h, 1 µM: pH 7.4, rat liver microsomes; for rat CLhep: predicted hepatic clearance from in vitro rat microsomal data. Here is the method:
Intrinsic Clearance in Rat and Human Liver Microsomes
The in vitro intrinsic clearance (CL int) was investigated in commercially obtained hepatic microsomes from rat and human donors using the substrate depletion (i.e., loss-of-parent vs. time, or t 1/2 method) approach with analyte detection via liquid chromatography-tandem mass spectrometry (LC-MS/MS). For each species, mean %parent remaining values at each time point were calculated from replicates raw data (analyte:IS peak area ratios) and used to determine in vitro t 1/2 and CLint.
Experiments were carried out using a robot-assisted (TECAN model Evo 200). Compound was incubated (1 µM final concentration) in buffer (100 mM potassium phosphate pH 7.4 with 3 mM MgCl2) containing hepatic microsomes (0.5 mg/mL final concentration) from multiple species, discretely, at 37 °C under constant orbital shaking. After 5 minutes (pre-incubation), reactions were initiated by addition of nicotinamide adenine dinucleotide phosphate (NADPH, 1 mM final concentration). At selected time intervals (0, 3, 7, 15, 25, and 45 minutes) post-addition of NADPH, aliquots (50 µL) were taken and placed into a 96-shallow-well plate containing ice cold acetonitrile (150 µL) with carbamazepine (IS, 50 nM). The plates were then centrifuged (3000 rcf at 4 °C) for 10 minutes. The supernatants were transferred to a new 96-shallow-well daughter plate and diluted (1:1 v/v) with water (Milli-Q filtered). The plates were then sealed in preparation for LC-MS/MS analysis (see below).
Raw LC-MS/MS peak area data generated from the assay samples were used to construct natural log-transformed %parent remaining vs. time plots (using t = 0 minute post-NADPH addition sample data as starting point set to 100%). In vitro compound half-life (t 1/2) values were obtained using the following […]
k is the slope from linear regression analysis of the natural log-transformed data (using means from Where all replicates at each time point). Resulting t 1/2 values were then used to calculate hepatic CLint values according to the following equation and with the use of species-specific scale-up factors for liver weight (grams) per total body weight (kg):
CL = 0.693 x 1 mL incubation x 45 mg microsomes x a gram liver
int in vitro t1/2 0.5 mg microsomes 1 gram liver kg body wt aScale-up factors used are 45 (rat) and 20 (human).1
Predicted hepatic clearance (CLhep) was calculated using the following equation: […]
Qh represents hepatic blood flow (mL/min/kg): 21 for human, 70 for rat, and 90 for mouse.

Where [3] appears, read: male Sprague-Dawley rats, PO 10 mg/kg, read-out: %F (oral bioavailability).

Structures are written as SMILES.

As a reminder, the MRT is a mean duration of stay, worked out from the concentration-time curve. By bioavailability is commonly meant dose-corrected exposure relative to a reference, in per cent. One may read the CLint scaled as a measure of how fast metabolising enzymes remove a compound, apart from limits set by blood flow. With `Cc1csc(NC(=O)c2cc(O[C@@H]3CCOC3)c3sccc3n2)n1` [19aA], in data set [1], the MRT was found to be 2.45 h, the clearance is 49.3 mL/min/kg, the half-life is 3.42 h and the Vd was found to be 6.67 L/kg. The bioavailability in data set [1] (setting [3]) is > 100%. Moreover, in data set [2], the intrinsic clearance (CLint scaled) at 0.75 h, 1 µM was found to be 143 mL/min/kg and the “rat CLhep” value was 47.0 mL/min/kg.

For the molecule `Cc1csc(NC(=O)c2cc(O[C@@H]3CCOC3)cc(F)c2F)n1` [27cA], in data set [1], the MRT came to 1.44 h, the clearance was found to be 31.3 mL/min/kg, the half-life was 1.78 h and the Vd is 2.89 L/kg. Moreover, in data set [1] (setting [3]), the bioavailability turned out to be 17% and the bioavailability at 24 h is 16.6%. Further, in data set [2], the intrinsic clearance (CLint scaled) at 0.75 h, 1 µM amounted to 116 mL/min/kg and the “rat CLhep” value is given as 43.7 mL/min/kg.

The values are drawn from PMC12067350, “Discovery of Thieno[3,2‑b]pyridine-5-carboxamide and 2,3-Difluorobenzamide Negative Allosteric Modulators of Metabotropic Glutamate Receptor Subtype 5” (ACS Medicinal Chemistry Letters, 2025).
